Measurements: US20240093213A1, “PROCESSES, SYSTEMS AND MEDIA FOR DELIVERING A SUBSTANCE TO A PLANT” (EPIGENETICA LIMITED, priority 2020, published 2024)

Tests used:
[1] = test system: Cannabis (Cs) apical cuttings; assay: Plant growth regulators delivered with ONB in hydroponics, plant growth; format: in vivo, Cannabis sativa; details: ONB compared to tap water as delivery system; 14 days hydroponics
Experimental: Hydroponic experiments were set up in glasshouse conditions: day temp. 25° C., night temp. 18° C., 16/8 h day/night and 150 μmol m^−2 s^−1 light intensity. Cannabis (Cs) apical cuttings were treated with Gibberellic acid A3 (GA3; Duchefa, G0907) at 12 mg/L final concentration, similar to Mansouri et al. (2011) or with DL-carnitine hydrochloride (Merck S7021474 Cas-No 461-05-2, 8.41774.0025) at 1 mM/L final concentration, as in Signem Oney-Birol (2019).
All solutions were prepared first in buckets, pH adjusted to 6.0. The liquid feed (Canna coco A+B) was added at the concentration: 4 mL of coco A and 4 mL of coco B per 1 L water; electric conductivity EC=2.0 mS/cm. Next the solutions were run through a fine bubble generator (Anzaikantetsu Co, AZ-FB-20ASVV) with a 0.75 standard litres per minute (SLPM) O2 flow and 800 L/H water flow. Each 25 L bucket was run for 30 min through the nozzle. EC and pH were checked and adjusted to the right level daily. Plants were grown in hydroponics for 14 days. Plant growth was monitored and compared to controls. Plant growth was determined by measurement of major growth parameters including plant height, whole plant fresh weight and number of stems. […]

lettuce (Lactuca sativa) = assay: Ultrasonic fogging of leaves with air nanobubble water, fresh weight; format: in vivo; details: var. Tango, 14 days, fog from air nanobubble water, source solution 1.65 mg/L
Experimental: Seedlings of various lettuce varieties (Lactuca sativa) were exposed to ultrasonic fog generated from water that contained air nanobubbles carrying MVOCs.
Albuterol Sulfate 98.5% (Spectrum Chemical, New Brunswick, NJ, USA) was diluted in tap water at 1.65 mg/L. Five litres was then placed in a container that was pressurized by an air compressor at 1.3 bar. Gas flow from the pressurized container was directed to a nanobubble generator installed in a recirculating flow of water totaling 60 L. After a minimum of 2 hr treatment, 4 L of nanobubble treated water was removed from the recirculating system and placed in a rectangular plastic reservoir with a total capacity of 6 L. A three head ultrasonic fog generator was then placed in the reservoir, and the reservoir was placed in an enclosed plant growth chamber. Seeds of lettuce (Lactuca sativa, var. Tango) were planted in 2.5 cm square cells filled with ProMix growing media. Upon shoot emergence, seedlings were placed in the growth chamber and fog treatments began. A ‘control’ group of plants was placed in a different section of the growth chamber that was not subjected to any treatment. Growing parameters within the chambers were maintained at levels suitable for the crop, including a photoperiod of 16 hr/day. […] After 14 days, all plants were harvested and fresh weight recorded.

## C[N+](C)(C)CC(O)CC(=O)O.[Cl-] (racemic) [DL-carnitine, DL-carnitine hydrochloride]
[1]
  Plant height and biomass: Increased plant height and biomass

## C=C1C[C@]23C[C@@]1(O)CC[C@H]2[C@@]12C=C[C@H](O)[C@@](C)(C(=O)O1)[C@H]2[C@@H]3C(=O)O [gibberellic acid, Gibberellic acid A3]
[1]
  Plant height and biomass: Increased plant height and biomass

## Albuterol Sulfate
Lettuce (Lactuca sativa)
  Average increase in weight compared to control plants: over 30%
